Reference: patent US10414754B2, “Indolizine compounds, a process for their preparation and pharmaceutical compositions containing them” (LES LABORATOIRES SERVIER, priority 2013, dated 2019)
Counter-ions that a name gives are not always drawn.

Key:
[1] = test system: RS4;11 leukaemia tumour line; assay: In vitro cytotoxicity (MTT) on RS4;11; format: cell-based; conditions: Homo sapiens; RS4;11 cells, 48 hours exposure
Protocol: The cytotoxicity studies were carried out on the RS4;11 leukaemia tumour line.
The cells are distributed onto microplates and exposed to the test compounds for 48 hours.
The cell viability is then quantified by a colorimetric assay, the Microculture Tetrazolium Assay (Cancer Res., 1987, 47, 939-942).

[2] = target: T1, Bcl-2 protein (histag-Bcl-2, UniProtKB P10415) (Homo sapiens, UniProt P10415); assay: Inhibition of Bcl-2 by the fluorescence polarisation technique; format: binding; conditions: fluorescence polarisation, 2 hours incubation; read-out: IC50 (nM) Bcl-2 FP
T1 construct: His tag
Protocol: The fluorescence polarisation tests were carried out on microplates (384 wells). The Bcl-2 protein, labelled (histag-Bcl-2 such that Bcl-2 corresponds to the UniProtKB® primary accession number: P10415), at a final concentration of 2.50×10^−8 M, is mixed with a fluorescent peptide (Fluorescein-[…]), at a final concentration of 1.00×10^−8M in a buffer solution (Hepes 10 mM, NaCl 150 mM, Tween20 0.05%, pH 7.4), in the presence or absence of increasing concentrations of test compounds. After incubation for 2 hours, the fluorescence polarisation is measured.

T1 sequence (P10415 whole entry): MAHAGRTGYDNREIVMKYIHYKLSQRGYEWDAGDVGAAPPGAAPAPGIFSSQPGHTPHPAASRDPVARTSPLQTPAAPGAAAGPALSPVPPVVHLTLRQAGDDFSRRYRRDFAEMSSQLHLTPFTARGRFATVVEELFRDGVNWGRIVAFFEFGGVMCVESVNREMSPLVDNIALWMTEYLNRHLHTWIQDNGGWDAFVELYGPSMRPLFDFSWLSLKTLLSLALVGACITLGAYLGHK

With `C[C@@H]1Cc2ccccc2CN1C(=O)c1cc2c(cc1-c1cc(C(=O)N(c3ccc(O)cc3)c3ccc4c(ccn4C)c3)c3n1CCCC3)OCO2` [Example 1, N-(4-Hydroxyphenyl)-3-(6-{[(3R)-3-methyl-3,4-dihydroisoquinolin-2(1H)-yl]carbonyl}-1,3-benzodioxol-5-yl)-N-(1-methyl-1H-indol-5-yl)-5,6,7,8-tetrahydro-indolizine-1-carboxamide] the IC50 [1] was 11.3 nM and the IC50 [2] was 17.9 nM.

With `C[C@@H]1Cc2ccccc2CN1C(=O)c1cc2c(cc1-c1cc(C(=O)N(c3ccc(O)cc3)c3ccc4c(ccn4CCN4CCOCC4)c3)c3n1CCCC3)OCO2` [Example 2, N-(4-Hydroxyphenyl)-3-(6-{[(3R)-3-methyl-3,4-dihydroisoquinolin-2(1H)-yl]carbonyl}-1,3-benzodioxol-5-yl)-N-{1-[2-(morpholin-4-yl)ethyl]-1H-indol-5-yl}-5,6,7,8-tetrahydroindolizine-1-carboxamide hydrochloride] the IC50 [1] was 36 nM and the IC50 [2] was 17 nM.

For `C[C@@H]1Cc2ccccc2CN1C(=O)c1ccc(Cl)cc1-c1cc(C(=O)N(c2ccc(O)cc2)c2ccc3c(ccn3C)c2)c2n1CCNC2` [Example 3, 6-(5-Chloro-2-{[(3R)-3-methyl-3,4-dihydroisoquinolin-2(1H)-yl]-carbonyl}phenyl)-N-(4-hydroxyphenyl)-N-(1-methyl-1H-indol-5-yl)-1,2,34-tetrahydropyrrolo[1,2-a]pyrazine-8-carboxamide hydrochloride], the IC50 [1] was 66.5 nM and the IC50 [2] was 33.6 nM.

For `O=C(c1ccc(Cl)cc1-c1cc(C(=O)N(c2ccc(O)cc2)c2ccc3c(ccn3CCN3CCOCC3)c2)c2n1CCCC2)N1CCc2ccccc2C1` [Example 4, 3-[5-Chloro-2-(3,4-dihydroisoquinolin-2(1H)-ylcarbonyl)phenyl]-N-(4-hydroxyphenyl)-N-{1-[2-(morpholin-4-yl)ethyl]-1H-indol-5-yl}-5,6,7,8-tetrahydro-indolizine-1-carboxamide], the IC50 [1] was 251 nM and the IC50 [2] was 56.4 nM.

`O=C(c1ccc(Cl)cc1-c1cc(C(=O)N(c2ccc(O)cc2)c2ccc3c(c2)CCN3CCN2CCOCC2)c2n1CCCC2)N1CCc2ccccc2C1` [Example 5, 3-[5-Chloro-2-(3,4-dihydroisoquinolin-2(1H)-ylcarbonyl)phenyl]-N-(4-hydroxyphenyl)-N-{1-[2-(morpholin-4-yl)ethyl]-2,3-dihydro-1H-indol-5-yl}-5,6,7,8-tetrahydroindolizine-1-carboxamide] gave an IC50 [1] of 416 nM and an IC50 [2] of 55.9 nM.

Molecule `C[C@@H]1Cc2ccccc2CN1C(=O)c1cc2c(cc1-c1cc(C(=O)N(c3ccc(O)cc3)c3ccc4c(ccn4C)c3)c3n1CCN(C)C3)OCCO2` [Example 6, N-(4-Hydroxyphenyl)-2-methyl-6-(7-{[(3R)-3-methyl-3,4-dihydroiso-quinolin-2(1H)-yl]carbonyl}-2,3-dihydro-1,4-benzodioxin-6-yl)-N-(1-methyl-1H-indol-5-yl)-1,2,3,4-tetrahydropyrrolo[1,2-a]pyrazine-8-carboxamide hydrochloride] has an IC50 [1] of 161 nM and an IC50 [2] of 60.3 nM.

In the case of `C[C@@H]1Cc2ccccc2CN1C(=O)c1ccc(Cl)cc1-c1cc(C(=O)N(c2ccc(O)cc2)c2ccc3c(ccn3C)c2)c2n1CCN(C)C2` [Example 7, 6-(5-Chloro-2-{[(3R)-3-methyl-3,4-dihydroisoquinolin-2(1H)-yl]-carbonyl}phenyl]-N-(4-hydroxyphenyl)-2-methyl-N-(1-methyl-1H-indol-5-yl)-1,2,3,4-tetrahydropyrrolo[1,2-a]pyrazine-8-carboxamide], the IC50 [1] is reported as 108 nM and the IC50 [2] is reported as 46.4 nM.

`C[C@@H]1Cc2ccccc2CN1C(=O)c1ccc(Cl)cc1-c1cc(C(=O)N(c2ccc(O)cc2)c2ccc3c(ccn3CCN3CCOCC3)c2)c2ccccn12` [Example 8, 3-(5-Chloro-2-{[(3R)-3-methyl-3,4-dihydroisoquinolin-2(1H)-yl]-carbonyl}phenyl)-N-(4-hydroxyphenyl)-N-{1-[2-(morpholin-4-yl)ethyl]-1H-indol-5-yl}indolizine-1-carboxamide hydrochloride] was tested, and the IC50 [1] was 20.5 nM and the IC50 [2] was 24.5 nM.

With `C[C@@H]1Cc2ccccc2CN1C(=O)c1ccc(F)cc1-c1cc(C(=O)N(c2ccc(O)cc2)c2ccc(F)cc2)c2n1CCNC2` [Example 9, 6-(5-Fluoro-2-{[(3R)-3-methyl-3,4-dihydroisoquinolin-2(1H)-yl]carbonyl}-phenyl)-N-(4-fluorophenyl)-N-(4-hydroxyphenyl)-1,2,3,4-tetrahydropyrrolo[1,2-a]-pyrazine-8-carboxamide hydrochloride] the IC50 [1] was 780 nM and the IC50 [2] was 40.6 nM.

In the case of `Cc1ccc(N(C(=O)c2cc(-c3cc(F)ccc3C(=O)N3Cc4ccccc4C[C@H]3C)n3c2CNCC3)c2ccc(O)cc2)cc1F` [Example 10, 6-(5-Fluoro-2-{[(3R)-3-methyl-3,4-dihydroisoquinolin-2(1H)-yl]-carbonyl}phenyl)-N-(3-fluoro-4-methylphenyl)-N-(4-hydroxyphenyl)-1,2,3,4-tetrahydropyrrolo[1,2-a]pyrazine-8-carboxamide hydrochloride], the IC50 [1] is reported as 439 nM and the IC50 [2] is reported as 24.7 nM.

For `C[C@@H]1Cc2ccccc2CN1C(=O)c1cc2c(cc1-c1cc(C(=O)N(c3ccc(O)cc3)c3ccc4c(cnn4C)c3)c3n1CCNC3)OCO2` [Example 11, N-(4-Hydroxyphenyl)-6-(6-{[(3R)-3-methyl-3,4-dihydroisoquinolin-2(1,H)-yl]carbonyl}-1,3-benzodioxol-5-yl)-N-(1-methyl-1H-indazol-5-yl)-1,2,3,4-tetrahydropyrrolo[1,2-a]pyrazine-8-carboxamide hydrochloride], the IC50 [1] was 83.7 nM and the IC50 [2] was 10.9 nM.

Molecule `C[C@@H]1Cc2ccccc2CN1C(=O)c1ccc(Cl)cc1-c1cc(C(=O)N(c2ccc(O)cc2)c2ccc3c(cnn3C)c2)c2n1CCNC2` [Example 12, 6-(5-Chloro-2-{[(3R)-3-methyl-3,4-dihydroisoquinolin-2(1H)-yl]-carbonyl}phenyl)-N-(4-hydroxyphenyl)-N-(1-methyl-1H-indazol-5-yl)-1,2,3,4-tetrahydropyrrolo[1,2-a]pyrazine-8-carboxamide hydrochloride] has an IC50 [1] of 116 nM and an IC50 [2] of 10.4 nM.

`O=C(c1cc(-c2cc3c(cc2C(=O)N2Cc4ccccc4C[C@H]2CCN2CCOCC2)OCO3)n2c1CCCC2)N(c1ccccc1)c1ccc(O)cc1` [Example 13, N-(4-Hydroxyphenyl)-3-(6-{[(3S)-3-[2-(morpholin-4-yl)ethyl]-3,4-dihydroisoquinolin-2(1H)-yl]carbonyl}-1,3-benzodioxol-5-yl)-N-phenyl-5,6,7,8-tetrahydroindolizine-1-carboxamide hydrochloride] gave an IC50 [1] of 33.6 nM and an IC50 [2] of 5.8 nM.

Work on `Cn1ncc2cc(N(C(=O)c3cc(-c4cc5c(cc4C(=O)N4Cc6ccccc6C[C@H]4CCN4CCOCC4)OCO5)n4c3CCCC4)c3ccc(O)cc3)ccc21` [Example 14, N-(4-Hydroxyphenyl)-N-(1-methyl-1H-indazol-5-yl)-3-(6-{[(3S)-3-[2-(morpholin-4-yl)ethyl]-3,4-dihydroisoquinolin-2(1H)-yl]carbonyl}-1,3-benzodioxol-5-yl)-5,6,7,8-tetrahydroindolizine-1-carboxamide hydrochloride] yielded an IC50 [1] of 7.6 nM and an IC50 [2] of 3.7 nM.

Work on `C[C@@H]1Cc2ccccc2CN1C(=O)c1cc2c(cc1-c1cc(C(=O)N(c3ccccc3)c3ccc(O)cc3)c3n1CCC(N)C3)OCO2` (stereo partly drawn) [Example 15, 7-Amino-N-(4-hydroxyphenyl)-3-(6-{[(3R)-3-methyl-3,4-dihydroiso-quinolin-2(1H)-yl]carbonyl}-1,3-benzodioxol-5-yl)-N-phenyl-5,6,7,8-tetrahydro-indolizine-1-carboxamide hydrochloride] yielded an IC50 [1] of 166 nM and an IC50 [2] of 5.7 nM.

In the case of `O=C(c1cc(-c2cc3c(cc2C(=O)N2Cc4ccccc4C[C@H]2CO)OCO3)n2c1CCCC2)N(c1ccccc1)c1ccc(O)cc1` [Example 16, 3-(6-{[(3S)-3-(Hydroxymethyl)-3,4-dihydroisoquinolin-2(1H)-yl]-carbonyl}-1,3-benzodioxol-5-yl)-N-(4-hydroxyphenyl)-N-phenyl-5,6,7,8-tetrahydro-indolizine-1-carboxamide], the IC50 [1] is reported as 252 nM and the IC50 [2] is reported as 7.5 nM.

`C[C@@H]1Cc2ccccc2CN1C(=O)c1cc2c(cc1-c1cc(C(=O)N(c3ccc(O)cc3)c3cc[n+](C)cc3)c3ccccn13)OCO2` [Example 71, 4-[(4-Hydroxyphenyl){[3-(6-{[(3R)-3-methyl-3,4-dihydroisoquinolin-2(1H)-yl]carbonyl}-1,3-benzodioxol-5-yl)indolizin-1-yl]carbonyl}amino]-1-methyl-pyridinium chloride] gave an IC50 [2] of 49 nM.

With `CN(C(=O)c1cc(-c2cc3c(cc2C(=O)N2CCc4ccccc4C2)OCO3)n2c1CNCC2)c1ccc(O)cc1` [Example 84, 6-[6-(3,4-Dihydroisoquinolin-2(1H)-ylcarbonyl)-1,3-benzodioxol-5-yl]-N-(4-hydroxyphenyl)-N-methyl-1,2,3,4-tetrahydropyrrolo[1,2-a]pyrazine-8-carboxamide] the IC50 [2] was 525 nM.

With `CCN(C(=O)c1cc(-c2cc3c(cc2C(=O)N2CCc4ccccc4C2)OCO3)n2c1CNCC2)c1ccc(O)cc1` [Example 85, 6-[6-(3,4-Dihydroisoquinolin-2(1H)-ylcarbonyl)-1,3-benzodioxol-5-yl]-N-ethyl-N-(4-hydroxyphenyl)-1,2,3,4-tetrahydropyrrolo[1,2-a]pyrazine-8-carboxamide] the IC50 [2] was 243 nM.
